Reference: US20260041653A1, “AN HDAC INHIBITOR FOR TREATING CANCER WITH A MODIFIED STK11 ACTIVITY OR EXPRESSION” (Tango Therapeutics, Inc., priority 2022, published 2026)

Tested on: MC38_sgStk11 tumor
Assay: Anti-tumor efficacy in murine subcutaneous MC38_sgStk11 tumor model
Format: in vivo, Mus musculus
Settings: for T/C / TGI %: day 11
Method: Summary: An in vivo anti-tumor efficacy of double combination treatment of Anti-PD1 and HDAC1,2-selective inhibitor in a murine subcutaneous MC38_sgStk11 tumor model in […] mice was performed.
96 mice plus 39 spare mice of the species: Mus musculus: strain: C57BL/6; age 8-10 weeks; sex: female; and body weight: 16.9-20.0 g
The MC38_sgStk11 tumor cells were maintained in vitro as a monolayer culture in DMEM+2 mM glutamine supplemented with about 10% heat inactivated fetal bovine serum, about 100 U/ml penicillin and 100 μg/ml streptomycin at about 37° C. in an atmosphere of about 5% CO2 in air. The tumor cells were routinely sub-cultured twice weekly by trypsin-EDTA treatment. The cells growing in an exponential growth phase were harvested and counted for tumor inoculation.
Each mouse was inoculated subcutaneously at the right upper flank with MC38_sgStk11 tumor cells (0.5×106) in 0.1 ml of PBS for tumor development. Treatments were started on day 4 after tumor inoculation when the average tumor size reached 52 mm^3. The animals were assigned into groups according to a sorting standard operating procedures based upon their tumor volumes. Each group consisted of 8 tumor bearing mice. The testing article was administrated to the mice according to the predetermined regimen as shown in the experimental design table (Table 1-1).
All the procedures related to animal handling, care and the treatment in the study were performed according to the guidelines approved by the Institutional Animal Care and Use Committee (IACUC) of vendor following the guidance of the Association for Assessment and Accreditation of Laboratory Animal Care (AAALAC). At the time of routine monitoring, the animals were daily checked for any effects of tumor growth and treatments on normal behavior such as mobility, food and water consumption, body weight gain/loss (body weights were measured three times per week), eye/hair matting and any other abnormal effect as stated in the protocol. Death and observed clinical signs were recorded on the basis of the numbers of animals within each subset.
A primary endpoint was to see if the tumor growth could be delayed or mice could be cured. Tumor size was measured three times per week in two dimensions using a caliper, and the volume was expressed in mm3 using the formula: V=0.5 a×b2 where a and b are the long and short diameters of the tumor, respectively. The T/C value (in percent) is an indication of antitumor effectiveness; T and C are the mean volume of the treated and control groups, respectively, on a given day. TGI is calculated for each group using the formula: TGI (%)=[1−(Ti−T0)/(Vi−V0)]×100; Ti is the average tumor volume of a treatment group on a given day, T0 is the average tumor volume of the treatment group on the day of treatment start, Vi is the average tumor volume of the vehicle control group on the same day with Ti, and V0 is the average tumor volume of the vehicle group on the day of treatment start.
Statistical analysis of difference in the tumor volume among the groups were conducted on the data obtained at the best therapeutic time point at the day 11 after the start of treatment. A one-way ANOVA was performed for comparisons between groups. The survival analysis between groups was carried out with Kaplan-Meier test. p<0.05 was considered to be statistically significant.

[1] = Gr 5: Compound I 75 mg/kg PO QD + Anti-IgG2a 10 mg/kg IP BIW
[2] = Gr 6: Compound I 150 mg/kg D0-D4, 100 mg/kg D5-D48 PO QD + Anti-IgG2a 10 mg/kg IP BIW

C[S@@](=N)(=O)c1ccc(C(=O)Nc2cc(-c3ccc(F)cc3)ccc2N)cc1 [Compound I, (R)—N-(4-amino-4′-fluoro-[1,1′-biphenyl]-3-yl)-4-(S-methylsulfonimidoyl)benzamide]
PR (partial regression) [1]: 0.0%
Tumor Volume (Gr 5: Compound I 75 mg/kg PO QD + Anti-IgG2a 10 mg/kg IP BIW, day 0 of treatment): 52 ± 2 mm^3
Tumor Volume (Gr 5: Compound I 75 mg/kg PO QD + Anti-IgG2a 10 mg/kg IP BIW, day 2 of treatment): 218 ± 12 mm^3
Tumor Volume (Gr 5: Compound I 75 mg/kg PO QD + Anti-IgG2a 10 mg/kg IP BIW, day 4 of treatment): 485 ± 37 mm^3
Tumor Volume (Gr 5: Compound I 75 mg/kg PO QD + Anti-IgG2a 10 mg/kg IP BIW, day 7 of treatment): 576 ± 45 mm^3
Tumor Volume (Gr 5: Compound I 75 mg/kg PO QD + Anti-IgG2a 10 mg/kg IP BIW, day 9 of treatment): 622 ± 44 mm^3
T/C [1]: 29.7%
TGI % [1]: 72.1%
Tumor Volume (Gr 5: Compound I 75 mg/kg PO QD + Anti-IgG2a 10 mg/kg IP BIW, day 11 of treatment): 632 ± 55 mm^3
Tumor Volume (Gr 5: Compound I 75 mg/kg PO QD + Anti-IgG2a 10 mg/kg IP BIW, day 14 of treatment): 580 ± 85 mm^3
Tumor Volume (Gr 5: Compound I 75 mg/kg PO QD + Anti-IgG2a 10 mg/kg IP BIW, day 16 of treatment): 557 ± 101 mm^3
Tumor Volume (Gr 5: Compound I 75 mg/kg PO QD + Anti-IgG2a 10 mg/kg IP BIW, day 18 of treatment): 536 ± 109 mm^3
Tumor Volume (Gr 5: Compound I 75 mg/kg PO QD + Anti-IgG2a 10 mg/kg IP BIW, day 21 of treatment): 514 ± 117 mm^3
Tumor Volume (Gr 5: Compound I 75 mg/kg PO QD + Anti-IgG2a 10 mg/kg IP BIW, day 23 of treatment): 502 ± 138 mm^3
Tumor Volume (Gr 5: Compound I 75 mg/kg PO QD + Anti-IgG2a 10 mg/kg IP BIW, day 25 of treatment): 477 ± 151 mm^3
Tumor Volume (Gr 5: Compound I 75 mg/kg PO QD + Anti-IgG2a 10 mg/kg IP BIW, day 28 of treatment): 551 ± 171 mm^3
Tumor Volume (Gr 5: Compound I 75 mg/kg PO QD + Anti-IgG2a 10 mg/kg IP BIW, day 30 of treatment): 815 ± 291 mm^3
Tumor Volume (Gr 5: Compound I 75 mg/kg PO QD + Anti-IgG2a 10 mg/kg IP BIW, day 32 of treatment): 1001 ± 375 mm^3
Tumor Volume (Gr 5: Compound I 75 mg/kg PO QD + Anti-IgG2a 10 mg/kg IP BIW, day 34 of treatment): 827 ± 268 mm^3
Tumor Volume (Gr 5: Compound I 75 mg/kg PO QD + Anti-IgG2a 10 mg/kg IP BIW, day 38 of treatment): 14 mm^3
Tumor Volume (Gr 5: Compound I 75 mg/kg PO QD + Anti-IgG2a 10 mg/kg IP BIW, day 42 of treatment): 13 mm^3
Tumor Volume (Gr 5: Compound I 75 mg/kg PO QD + Anti-IgG2a 10 mg/kg IP BIW, day 45 of treatment): 6 mm^3
Tumor Volume (Gr 5: Compound I 75 mg/kg PO QD + Anti-IgG2a 10 mg/kg IP BIW, day 49 after start of treatment): 0 mm^3
Tumor Volume (Gr 5: Compound I 75 mg/kg PO QD + Anti-IgG2a 10 mg/kg IP BIW, day 52 after start of treatment): 0 mm^3
Tumor Volume (Gr 5: Compound I 75 mg/kg PO QD + Anti-IgG2a 10 mg/kg IP BIW, day 56 after start of treatment): 0 mm^3
Tumor Volume (Gr 5: Compound I 75 mg/kg PO QD + Anti-IgG2a 10 mg/kg IP BIW, day 59 after start of treatment): 0 mm^3
Tumor Volume (Gr 5: Compound I 75 mg/kg PO QD + Anti-IgG2a 10 mg/kg IP BIW, day 63 after start of treatment): 0 mm^3
Tumor Volume (Gr 5: Compound I 75 mg/kg PO QD + Anti-IgG2a 10 mg/kg IP BIW, day 66 after start of treatment): 0 mm^3
CR (complete regression) [2]: 0.0%
ORR (CR + PR) [2]: 0.0%
PR (partial regression) [2]: 0.0%
Tumor Volume (Gr 6: Compound I 150 mg/kg D0-D4, 100 mg/kg D5-D48 PO QD + Anti-IgG2a 10 mg/kg IP BIW, day 0 of treatment): 52 ± 2 mm^3
Tumor Volume (Gr 6: Compound I 150 mg/kg D0-D4, 100 mg/kg D5-D48 PO QD + Anti-IgG2a 10 mg/kg IP BIW, day 2 of treatment): 205 ± 14 mm^3
Tumor Volume (Gr 6: Compound I 150 mg/kg D0-D4, 100 mg/kg D5-D48 PO QD + Anti-IgG2a 10 mg/kg IP BIW, day 4 of treatment): 450 ± 40 mm^3
Tumor Volume (Gr 6: Compound I 150 mg/kg D0-D4, 100 mg/kg D5-D48 PO QD + Anti-IgG2a 10 mg/kg IP BIW, day 7 of treatment): 508 ± 40 mm^3
Tumor Volume (Gr 6: Compound I 150 mg/kg D0-D4, 100 mg/kg D5-D48 PO QD + Anti-IgG2a 10 mg/kg IP BIW, day 9 of treatment): 636 ± 19 mm^3
T/C [2]: 41.2%
TGI % [2]: 60.2%
Tumor Volume (Gr 6: Compound I 150 mg/kg D0-D4, 100 mg/kg D5-D48 PO QD + Anti-IgG2a 10 mg/kg IP BIW, day 11 of treatment): 878 ± 66 mm^3
Tumor Volume (Gr 6: Compound I 150 mg/kg D0-D4, 100 mg/kg D5-D48 PO QD + Anti-IgG2a 10 mg/kg IP BIW, day 14 of treatment): 1090 ± 167 mm^3
Tumor Volume (Gr 6: Compound I 150 mg/kg D0-D4, 100 mg/kg D5-D48 PO QD + Anti-IgG2a 10 mg/kg IP BIW, day 16 of treatment): 1236 ± 211 mm^3
Tumor Volume (Gr 6: Compound I 150 mg/kg D0-D4, 100 mg/kg D5-D48 PO QD + Anti-IgG2a 10 mg/kg IP BIW, day 18 of treatment): 1414 ± 243 mm^3
Tumor Volume (Gr 6: Compound I 150 mg/kg D0-D4, 100 mg/kg D5-D48 PO QD + Anti-IgG2a 10 mg/kg IP BIW, day 21 of treatment): 1728 ± 366 mm^3
Tumor Volume (Gr 6: Compound I 150 mg/kg D0-D4, 100 mg/kg D5-D48 PO QD + Anti-IgG2a 10 mg/kg IP BIW, day 23 of treatment): 2198 ± 472 mm^3
Tumor Volume (Gr 6: Compound I 150 mg/kg D0-D4, 100 mg/kg D5-D48 PO QD + Anti-IgG2a 10 mg/kg IP BIW, day 25 of treatment): 2054 ± 638 mm^3
Tumor Volume (Gr 6: Compound I 150 mg/kg D0-D4, 100 mg/kg D5-D48 PO QD + Anti-IgG2a 10 mg/kg IP BIW, day 28 of treatment): 1705 ± 330 mm^3
Tumor Volume (Gr 6: Compound I 150 mg/kg D0-D4, 100 mg/kg D5-D48 PO QD + Anti-IgG2a 10 mg/kg IP BIW, day 30 of treatment): 1840 ± 326 mm^3
Tumor Volume (Gr 6: Compound I 150 mg/kg D0-D4, 100 mg/kg D5-D48 PO QD + Anti-IgG2a 10 mg/kg IP BIW, day 32 of treatment): 1949 ± 395 mm^3
Tumor Volume (Gr 6: Compound I 150 mg/kg D0-D4, 100 mg/kg D5-D48 PO QD + Anti-IgG2a 10 mg/kg IP BIW, day 34 of treatment): 2089 ± 389 mm^3
